Assay results from patent US12728134B2, “Liquisolid pharmaceutical formulation and process for manufacturing” (RHEINISCHE FRIEDRICH-WILHELMS-UNIVERSITÄT BONN, priority 2020, dated 2026).
Values after ≈ are worked out from the molar mass of the structure shown. Counter-ions that a name gives are not always drawn. Values belong to the compound of their own block, whether it stands above or below them.

Legend:
[1] = Solubility of poorly water-soluble APIs in propylene carbonate; assay type: physicochemical; conditions: organic solvent or mixture, thermodynamic from solid, solvent added in 10 μl steps to about 20 mg, mean of three samples
Description: For a preliminary analysis, 1-2 mg of each compound was weighted in an Eppendorf tube and 1 ml propylene carbonate was added. The mixture was mixed with a metal spatula for 10 min each. The solubility of compounds, which were fully dissolved in the preliminary tests where than further analyzed. About 20 mg of each compound were used and under stirring with a metal spatula propylene carbonate was added in 10 μl steps.

[2] = physchem; conditions: organic solvent or mixture, thermodynamic from solid
Description: Therefore, 1 mg of each compound was weighted in an Eppendorf tube and 1 ml of solvent was added. The mixture was mixed with a metal spatula for 10 min each. […] About 20 mg of each compound were used and under stirring with a metal spatula the solvent was added in 10 μl steps.

[3] = Biphasic dissolution test (BiPHa+); assay type: in vitro ADME
Source text: This approach was chosen to simulate the gastrointestinal properties to obtain in vivo predictive results.
The transition to the organic phase can be understood as absorption of active substances into the blood.
To simulate the gastrointestinal properties to obtain in vivo predictive results, the pH-profile, bile salt concentration and gastrointestinal passage time were adjusted in the aqueous phase to mimic human gut conditions. An organic phase of 1-decanol above the aqueous phase imitated the fraction absorbed from the gut. As a test model, the profile of a person without prior food intake was chosen. Therefore, FaSSIF-V2 medium, which represents the bile salts concentration of a fasted human was used. […] To generate an in-situ biorelevant aqueous medium for the fasted state, biorelevant surfactants, namely sodium-taurocholate (3 mM) and lecithin (0.2 mM), were added.
Prior to the start of the experiments, both phases, 1-decanol and the acidic aqueous phase, were saturated with each other. First, the respective formulation was added (Table 2) to 50 mL HCl (0.1 M), simulating the stomach. During the first 30 min the formulation disintegrated/dispersed in 50 ml of 0.1 M HCl. After 30 min FaSSIF-V2 concentrate (sodium-taurocholate and lecithin) was added simultaneously to the addition of citrate-phosphate buffer (tri-potassium phosphate and potassium citrate) resulting in a first pH-shift from pH 1 to pH 5.5, simulating the duodenum. Thereafter, 50 mL 1-decanol was added. […] The adjusted buffers were titrated by 0.1 M NaOH and 0.1 M HCl (pH 5.5-6.8). The whole dissolution took 4.5 hours.
For each compound, the biphasic dissolution test was performed in triplicate. In order to evaluate the liquisolid formulations in terms of their performance, each liquisolid formulation was compared to a respective commercially available formulation.
The market formulations (Originator) of the selected APIs were tested additionally to compare the performance against established marked products.

SMILES: COC1=CC(=O)C[C@@H](C)[C@]12Oc1c(Cl)c(OC)cc(OC)c1C2=O [Griseofulvin]
solubility [1]: 16.8 mg/mL (≈ 47.7 mM)

SMILES: CN1CCN(C2=Nc3cc(Cl)ccc3Nc3ccccc32)CC1 [Clozapine]
solubility [1]: 4.79 mg/mL (≈ 14.7 mM)

SMILES: Cc1ccc(S(=O)(=O)NC(=O)NN2CC3CCCC3C2)cc1 (stereo not drawn) [Gliclazide]
solubility [1]: 32.3 mg/mL (≈ 99.8 mM)

SMILES: Cc1ccc(-c2cc(C(F)(F)F)nn2-c2ccc(S(N)(=O)=O)cc2)cc1 [Celecoxib]
solubility [1]: 267 mg/mL (≈ 699 mM) | solubility at 10 min ([2]; glycerol): < 1000 µg/mL | solubility ([2]; polyethylene glycol 400 (PEG 400)): 230 mg/mL (≈ 603 mM) | solubility ([2]; propylene glycol (PG)): 60.3 mg/mL (≈ 158 mM) | solubility ([2]; tetraglycole (TEG)): 244 mg/mL (≈ 641 mM) | Maximum Partitioned Drug in the Organic Phase ([3]; Market Formulation (Originator, Table 11)): 41% | Maximum Partitioned Drug in the Organic Phase ([3]; PC Silsol ® Formulation (propylene carbonate on mesoporous silica)): 54% | Maximum Partitioned Drug in the Organic Phase ([3]; PEG 400 Silsol ® Formulation): 46% | Maximum Partitioned Drug in the Organic Phase ([3]; TEG Silsol ® Formulation): 53% | result of propylene carbonate formulation compared to commercially available market formulation ([3]; same in vitro biphasic dissolution conditions, in words): even better results

SMILES: CC(=O)Oc1ccc(C(c2ccc(OC(C)=O)cc2)c2ccccn2)cc1 [Bisacodyl]
solubility [1]: 91.5 mg/mL (≈ 253 mM)

Now from value to compound:

solubility [1]: 167 mg/mL
SMILES: CN(C)CCCN1c2ccccc2CCc2ccccc21 [Imipramine hydrochloride]

solubility [1]: 144 mg/mL (≈ 345 mM) | solubility at 10 min [2]: < 1000 µg/mL
SMILES: COCCOC(=O)C1=C(C)NC(C)=C(C(=O)OC(C)C)C1c1cccc([N+](=O)[O-])c1 (stereo not drawn) [Nimodipine]

solubility [1]: 17.2 mg/mL (≈ 48.1 mM)
SMILES: COc1ccc2c(c1)c(CC(=O)O)c(C)n2C(=O)c1ccc(Cl)cc1 [Indomethacin]
